In patent publication US20060073994A1, “Liquid detergent composition” (Conopco, Inc., d/b/a UNILEVER, priority 2004, published 2006):

system: Protease enzyme; experiment: Residual activity of protease enzyme in liquid detergent formulation with added perfume component after storage; type: biochemical; conditions: 0.06% by weight perfume component added to 'base' liquid formulation; 2 weeks storage at 37° C.; activity determined at 40° C. in TRIS pH 9 buffer, tetrapeptide substrate; relative to t=0
Method: The following ‘base’ liquid detergent formulation was prepared: […]
The residual activity of the protease enzyme in all thus-formed formulations after 2 weeks storage at 37° C., was determined at 40° C. in a TRIS pH 9 buffer and using tetrapeptide as substrate. For this determination, the following protocol was used: Samples of 70 mg of the tested liquid formulation were diluted in 10.00 ml MilliQ water. 10 μl of this solution was added to an assay of 205 μl containing 74.4 mM TRIS pH9 and 0.494 mM tetrapeptide (succinyl-Ala-Ala-Pro-Phe-p-Nitroanilide). The absorbance of the tested samples at a wavelength of […] was measured for 15 minutes at 40° C., using a spectrophotometer. The absolute changes in absorbance as compared to the absorbance measured on a freshly prepared calibration sample were correlated to the measured activity of such freshly prepared sample. The measured protease enzyme activity is expressed as GU/ml.
The residual enzyme activity (expressed as %) is the enzyme activity after storage of the liquid formulation concerned divided by the enzyme activity measured at t=0.

| Compound | Residual activity after 2 weeks [%] |
| --- | --- |
| C/C=C\C(=O)C1C(C)=CCCC1(C)C (stereo not drawn) [Alpha damascone] | 68 |
| O=Cc1ccccc1 [Benzaldehyde] | 67 |
| CC(=O)OCc1ccccc1 [Benzyl acetate] | 69 |
| O=C/C=C/c1ccccc1 [Cinnamic aldehyde] | 58 |
| CC(C)=CCCC(C)=CC=O [Citral] | 36 |
| CC(C)=CCCC(C)CC=O (stereo not drawn) [Citronellal] | 62 |
| CC1=CC(C)C(C=O)CC1 (stereo not drawn) [Cyclal C] | 45 |
| CC1=CCC(C(C)C)=CC1 [Gamma terpinolene] | 54 |
| CCCCCCC(C=O)=Cc1ccccc1 [Hexylcinnamic aldehyde] | 81 |
| CC(=O)C1(C)CC2=C(CCCC2(C)C)CC1C (stereo not drawn) [Iso e super] | 75 |
| CC(C=O)Cc1ccc(C(C)(C)C)cc1 (stereo not drawn) [Lilial] | 48 |
| C=C(C)[C@H]1CC=C(C)CC1 [Limonene] | 60 |
| COC(=O)c1ccccc1N [Methyl anthranilate] | 70 |
| CCCCCCCC=O [Octanal] | 44 |
| N#CC(=C1CCCCC1)c1ccccc1 [Peonile] | 73 |
| CC(C)=CCCC1=CCC(C)(C=O)CC1 (stereo not drawn) [Precyclemone] | 74 |
| CC(C)=C1CC[C@@H](C)CC1=O [Pulegone] | 58 |
| CC(C)=CC1CC(C)CCO1 (stereo not drawn) [Rose oxide] | 60 |
| CC1=CCC(=C(C)C)CC1 [Terpinolene] | 47 |
| CCC(C)(O)CCCC(C)C (stereo not drawn) [Tetra hydrolinalool] | 65 |
| CCCCCCCCCC/C=C/C=O [Tridecylenic aldehyde] | 45 |
| CC(CC=O)c1ccccc1 (stereo not drawn) [Trifernal] | 74 |
| COc1cc(C=O)ccc1O [Vanillin] | 43 |
| Vertofix coeur | 68 |
